Assay [1] has as its system HeLa. Kind of assay: Cytotoxicity against human HeLa cells assessed as increase in cell viability at 200 nM for 4 hrs relative to control. The format is functional.
The subject of assay [2] is HeLa. Kind of assay: Effect on lipid peroxidation in human HeLa cells incubated at 200 nM for 4 hrs by C11-BODIPY581/591 staining based flow cytometric analysis. Type of assay: functional, cell-based. On the technique in general: Flow cytometry measures light scatter and fluorescence of single cells or particles in a stream.
Assay [3] concerns HeLa. Kind of assay: Cytotoxicity against human HeLa cells incubated for 72 hrs by MTT assay. Type of assay: functional, cell-based. (Tetrazolium assays rely on reduction of a dye to a coloured formazan, in cell work by metabolically active cells.)

One may read the IC50 as the point on the concentration scale where inhibition reaches its midpoint. Read a low IC50 as inhibition by little substance.

Activity calls are given as the source filed them. No cut-off for these calls is given here.

For the molecule `Clc1cccc(CNC2=Nc3ccccc3NC23CCNCC3)c1`, in the assay with HeLa [1], the Activity is reported as 5%. In addition, the outcome in the assay on HeLa [2] was Active.

In turn, `CCC/C=C/C=C/C(=O)OC` yielded an IC50 in the assay with HeLa [3] of over 20 µM.

As to `CCCCCCCC(=O)O[C@@H]1C[C@H]2[C@@H](CCCC[C@H](O)CCC)CCC[C@H]2N[C@H]1C`, the IC50 in the assay on HeLa [3] was found to be 11.7 µM.

Take `CCCCC/C=C/C(=O)OC`: in the assay on HeLa [3], the IC50 is over 20 µM.

As to `CCC[C@@H](O)CCCC[C@H]1CCC[C@H]2N[C@@H](C)[C@H](O)C[C@@H]12`, the 50% inhibitory concentration (IC50) in the assay with HeLa [3] was over 20 µM.

The values above are taken from ChEMBL document CHEMBL5360653, “Marine Alkaloid Lepadins E and H Induce Ferroptosis for Cancer Chemotherapy” (J Med Chem, 2023).
